Assay results as given in patent publication US7528164B2, “Substituted 4-aryl-4h-pyrrolo[2,3-h]chromenes and analogs as activators of caspases and inducers of apoptosis and the use thereof” (Cytovia, Inc., priority 2002, dated 2009).
Read-outs that look alike come from different tables or passages of the source.

Assays:
ZR-75-1 = experiment: Caspase cascade activation assay in ZR-75-1 cells (N-(Ac-DEVD)-N'-ethoxycarbonyl-R110 fluorogenic substrate); format: cell-based; details: ZR-75-1 human breast cancer cells, 24 h incubation; for Caspase activity (Ratio): ratio of net RFU of test compound to control; for EC50: sigmoidal dose-response, read-out: Caspase potency EC50
Procedure: (§1) Human breast cancer cell lines T-47D and ZR-75-1 were grown according to media component mixtures designated by American Type Culture Collection+10% FCS (Invitrogen Corporation), in a 5% CO2-95% humidity incubator at 37° C. T-47D and ZR-75-1 cells were maintained at a cell density between 30 and 80% confluency at a cell density of 0.1 to 0.6×10^6 cells/mL. Cells were harvested at 600×g and resuspended at 0.65×10^6 cells/mL into appropriate media+10% FCS. An aliquot of 45 μl of cells was added to a well of a 96-well microtiter plate containing 5 μl of a 10% DMSO in RPMI-1640 media solution containing about […] of 2-amino-3-cyano-4-(5-methyl-pyridin-3-yl)-7-methyl-4H-pyrrolo[2,3-h]chromene (Example 10) or other test compound (0.016 to 1 μM final). An aliquot of 45 μl of cells was added to a well of a 96-well microtiter plate containing 5 μl of a 10% DMSO in RPMI-1640 media solution without test compound as the control sample. The samples were mixed by agitation and then incubated at 37° C. for 24 h in a 5% CO2-95% humidity incubator. After incubation, the samples were removed from the incubator and 50 μl of a solution containing 20 μM of N-(Ac-DEVD)-N′-ethoxycarbonyl-R110 (SEQ ID No:1) fluorogenic substrate (Cytovia, Inc.; U.S. Pat. No. 6,335,429), 20% sucrose (Sigma), 20 mM DTT (Sigma), 200 mM NaCl (Sigma), 40 mM Na PIPES buffer pH 7.2 (Sigma), and 500 μg/ml lysolecithin (Calbiochem) was added. The samples were mixed by agitation and incubated at room temperature. Using a fluorescent plate reader (Model 1420 Wallac Instruments), an initial reading (T=0) was made approximately 1-2 min after addition of the substrate solution, employing excitation at 485 nm and emission at 530 nm, to determine the background fluorescence of the control sample. After the 3 h incubation, the samples were read for fluorescence as above (T=3 h).
(§2) The Relative Fluorescence Unit values (RFU) were used to calculate the sample readings as follows: RFU(T=3h)−Control RFU(T=0)=Net RFU(T=3h) The activity of caspase cascade activation was determined by the ratio of the net RFU value for 2-amino-3-cyano-4-(5-methyl-pyridin-3-yl)-7-methyl-4H-pyrrolo[2,3-h]chromene or other test compound to that of control samples. The EC50 (nM) was determined by a sigmoidal dose-response calculation (Prism 2.0, GraphPad Software Inc.).

T-47D = experiment: Caspase cascade activation assay in T-47D cells (N-(Ac-DEVD)-N'-ethoxycarbonyl-R110 fluorogenic substrate); format: cell-based; details: T-47D human breast cancer cells, 24 h incubation; for EC50: sigmoidal dose-response, read-out: Caspase potency EC50; for Caspase activity (Ratio): ratio of net RFU of test compound to control
Procedure: as §1, §2

SMILES | EC50 (ZR-75-1) | EC50 (T-47D; T47D) | EC50 (T-47D) | Caspase activity (Ratio) (ZR-75-1) | Caspase activity (Ratio) (T-47D)
COc1cccc(C2C(C#N)=C(N)Oc3c2ccc2c3ccn2C)c1 (stereo not drawn) [Example 28, 2-Amino-3-cyano-4-(3-methoxyphenyl)-7-methyl-4H-pyrrolo[2,3-h]chromene] | 3.3 nM | 7.2 nM | – | 6.3 | 4.6
COc1cc(C2C(C#N)=C(N)Oc3c2ccc2c3ccn2C)cc(I)c1OC (stereo not drawn) [Example 31, 2-Amino-3-cyano-4-(4,5-dimethoxy-3-iodophenyl)-7-methyl-4H-pyrrolo[2,3-h]chromene] | 3.7 nM | 4.9 nM | – | 4.3 | 6.3
Cn1ccc2c3c(ccc21)C(c1cccc(C#N)c1)C(C#N)=C(N)O3 (stereo not drawn) [Example 32, 2-Amino-3-cyano-4-(3-cyanophenyl)-7-methyl-4H-pyrrolo[2,3-h]chromene] | 2.9 nM | 6.9 nM | – | 3.6 | 5.3
COc1cc(C2C(C#N)=C(N)Oc3c2ccc2c3ccn2CO)cc(OC)c1OC (stereo not drawn) [Example 33, 2-Amino-3-cyano-4-(3,4,5-trimethoxyphenyl)-7-hydroxymethyl-4H-pyrrolo[2,3-h]chromene] | 3.3 nM | 6.2 nM | – | 3.0 | 4.3
COc1cc(OC)cc(C2C(C#N)=C(N)Oc3c2ccc2c3ccn2CO)c1 (stereo not drawn) [Example 34, 2-Amino-3-cyano-4-(3,5-dimethoxyphenyl)-7-hydroxymethyl-4H-pyrrolo [2,3-h]chromene] | 6.5 nM | 7.1 nM | – | 3.9 | 3.3
CN1CCc2c1ccc1c2OC(N)=C(C#N)C1c1cc(F)cc(F)c1 (stereo not drawn) [Example 35, 2-Amino-3-cyano-4-(3,5-difluorophenyl)-8,9-dihydro-7-methyl-4H-pyrrolo [2,3-h]chromene] | 10 nM | 28 nM | – | 5.5 | 4.3
Cc1cncc(C2C(C#N)=C(N)Oc3c2ccc2c3CCN2C)c1 (stereo not drawn) [Example 36, 2-Amino-4-(5-methyl-pyridin-3-yl)-3-cyano-7-methyl-8,9-dihydro-4H-pyrrolo[2,3-h]chromene] | 5 nM | 13 nM | – | 6.3 | 4.6
Cn1ccc2c3c(ccc21)C(c1ccc([N+](=O)[O-])s1)C(C#N)=C(N)O3 (stereo not drawn) [Example 37, 2-Amino-4-(5-nitro-thiophene-2-yl)-3-cyano-7-methyl-4H-pyrrolo[2,3-h]chromene] | 36 nM | > 100 nM | – | 6.7 | 2.0
CCC=CCC=CCC=CCC=CCC=CCC=CCCC(=O)OCn1ccc2c3c(ccc21)C(c1cc(Br)c(OC)c(OC)c1)C(C#N)=C(N)O3 (stereo not drawn) [Example 38, 4,7,10,13,16,19-Docosahexaenoic acid {2-Amino-4-(3-bromo-4,5-dimethoxy-phenyl)-3-cyano-4H-pyrrolo[2,3-h]chromene}-7-ylmethyl ester] | 29 nM | – | 55 nM | 6.9 | 5.2
CCC=CCC=CCC=CCC=CCC=CCC=CCCC(=O)OCn1ccc2c3c(ccc21)C(c1cncc(C)c1)C(C#N)=C(N)O3 (stereo not drawn) [Example 39, 4,7,10,13,16,19-Docosahexaenoic acid {2-Amino-3-cyano-4-(5-methyl-pyridin-3-yl)-4H-pyrrolo[2,3-h]chromene}-7-ylmethyl ester] | 26 nM | – | 51 nM | 6.2 | 3.7
Cn1ccc2c3c(ccc21)C(c1ccc(C#N)cc1)C(C#N)=C(N)O3 (stereo not drawn) [Example 40B, 2-Amino-3-cyano-4-(4-cyanophenyl)-7-methyl-4H-pyrrolo[2,3-h]chromene] | 35 nM | 55 nM | – | 4.2 | 4.9
Cn1ccc2c3c(ccc21)C(c1cc(Cl)cc(Cl)c1)C(C#N)=C(N)O3 (stereo not drawn) [Example 40D, 2-Amino-3-cyano-4-(3,5-dichlorophenyl)-7-methyl-4H-pyrrolo[2,3-h]chromene] | 15 nM | 25 nM | – | 2.9 | 3.3
COc1cc(C2C(C#N)=C(N)Oc3c2ccc2c3c(C)cn2C)cc(Br)c1OC (stereo not drawn) [Example 40F, 2-Amino-3-cyano-4-(3-bromo-4,5-dimethoxyphenyl)-7,9-dimethyl-4H-pyrrolo[2,3-h]chromene] | 26 nM | 42 nM | – | 3.9 | 2.6
Cn1ccc2c3c(ccc21)C(c1ccc(Cl)c(F)c1)C(C#N)=C(N)O3 (stereo not drawn) [Example 40H, 2-Amino-3-cyano-4-(3-fluoro-4-chlorophenyl)-7-methyl-4H-pyrrolo[2,3-h]chromene] | 56 nM | > 100 nM | – | 6.0 | 1.3

The next lines start with results.

EC50 (ZR-75-1) | EC50 (T-47D; T47D) | EC50 (T-47D) | SMILES | Caspase activity (Ratio) (ZR-75-1) | Caspase activity (Ratio) (T-47D)
5.7 nM | 12 nM | – | Cn1ccc2c3c(ccc21)C(c1cccc(Br)c1)C(C#N)=C(N)O3 (stereo not drawn) [Example 29, 2-Amino-3-cyano-4-(3-bromophenyl)-7-methyl-4H-pyrrolo[2,3-h]chromene] | 6.3 | 3.3
3.4 nM | 7.3 nM | – | Cn1ccc2c3c(ccc21)C(c1cc(F)cc(F)c1)C(C#N)=C(N)O3 (stereo not drawn) [Example 30, 2-Amino-3-cyano-4-(3,5-difluorophenyl)-7-methyl-4H-pyrrolo[2,3-h]chromene] | 5.6 | 3.6
7.2 nM | 14 nM | – | Cn1ccc2c3c(ccc21)C(c1cccc(F)c1)C(C#N)=C(N)O3 (stereo not drawn) [Example 40A, 2-Amino-3-cyano-4-(3-fluorophenyl)-7-methyl-4H-pyrrolo[2,3-h]chromene] | 4.1 | 5.1
7.9 nM | 14 nM | – | Cn1ccc2c3c(ccc21)C(c1cccc(Cl)c1)C(C#N)=C(N)O3 (stereo not drawn) [Example 40C, 2-Amino-3-cyano-4-(3-chlorophenyl)-7-methyl-4H-pyrrolo[2,3-h]chromene] | 2.7 | 4.0
81 nM | > 100 nM | – | Cn1ccc2c3c(ccc21)C(c1ccc(Cl)c(Cl)c1)C(C#N)=C(N)O3 (stereo not drawn) [Example 40E, 2-Amino-3-cyano-4-(3,4-dichlorophenyl)-7-methyl-4H-pyrrolo[2,3-h]chromene] | 3.2 | 1.3
15 nM | 29 nM | – | Cn1ccc2c3c(ccc21)C(c1ccc(F)c(F)c1)C(C#N)=C(N)O3 (stereo not drawn) [Example 40G, 2-Amino-3-cyano-4-(3,4 difluorophenyl)-7-methyl-4H-pyrrolo[2,3-h]chromene] | 5.9 | 4.6
14 nM | 29 nM | – | Cn1ccc2c3c(ccc21)C(c1ccc(F)c(Br)c1)C(C#N)=C(N)O3 (stereo not drawn) [Example 40I, 2-Amino-3-cyano-4-(3-bromo-4-fluorophenyl)-7-methyl-4H-pyrrolo[2,3-h]chromene] | 4.4 | 3.9
